Values after ≈ are worked out from the molar mass of the structure shown. Active and inactive are the calls of the source. The calls are words filed in the database; no cut-off is given here.
What was measured:
[1] = molecular target: T1, Peroxisome proliferator-activated receptor gamma (Homo sapiens) (UniProt P37231); assay: Agonist activity at recombinant human GAL4-DBD fused PPARgamma LBD expressed in COS7 cells at 10 uM after 24 hrs by luciferase reporter gene assay relative to rosiglitazone; type: cell-based
T1 sequence (whole entry): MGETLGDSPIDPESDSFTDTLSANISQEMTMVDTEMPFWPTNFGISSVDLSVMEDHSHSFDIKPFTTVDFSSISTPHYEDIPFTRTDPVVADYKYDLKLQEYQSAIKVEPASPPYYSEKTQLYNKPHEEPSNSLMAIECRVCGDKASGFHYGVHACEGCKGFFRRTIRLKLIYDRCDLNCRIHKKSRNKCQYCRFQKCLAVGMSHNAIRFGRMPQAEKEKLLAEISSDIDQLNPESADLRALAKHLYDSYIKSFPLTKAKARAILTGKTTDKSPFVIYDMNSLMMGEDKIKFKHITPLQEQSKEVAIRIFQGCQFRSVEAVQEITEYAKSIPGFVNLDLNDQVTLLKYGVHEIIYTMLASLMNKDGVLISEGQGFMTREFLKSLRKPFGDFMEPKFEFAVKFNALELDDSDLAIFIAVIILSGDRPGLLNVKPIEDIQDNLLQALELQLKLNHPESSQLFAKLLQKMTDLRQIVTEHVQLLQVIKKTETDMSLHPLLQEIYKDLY

[2] = Metabolic stability in human liver microsomes after 0.5 hrs; type: ADME, microsome; conditions: read-out: Stability
[3] = Aqueous thermodynamic solubility of the compound in pH 6.8 solution up to 4 hrs by HPLC-UV analysis; type: physicochemical; conditions: read-out: Therm_solubility
[4] = molecular target: T2, Peroxisome proliferator-activated receptor alpha (Homo sapiens) (UniProt Q07869); assay: Agonist activity at recombinant human GAL4-DBD fused PPARalpha LBD expressed in COS7 cells at 10 uM after 24 hrs by luciferase reporter gene assay relative to 2-(4-tert-Butylphenoxy)-3-[4-[2-[(4-pyridin-2-ylbenzoyl)amino]ethoxy]; type: cell-based
T2 sequence (whole entry): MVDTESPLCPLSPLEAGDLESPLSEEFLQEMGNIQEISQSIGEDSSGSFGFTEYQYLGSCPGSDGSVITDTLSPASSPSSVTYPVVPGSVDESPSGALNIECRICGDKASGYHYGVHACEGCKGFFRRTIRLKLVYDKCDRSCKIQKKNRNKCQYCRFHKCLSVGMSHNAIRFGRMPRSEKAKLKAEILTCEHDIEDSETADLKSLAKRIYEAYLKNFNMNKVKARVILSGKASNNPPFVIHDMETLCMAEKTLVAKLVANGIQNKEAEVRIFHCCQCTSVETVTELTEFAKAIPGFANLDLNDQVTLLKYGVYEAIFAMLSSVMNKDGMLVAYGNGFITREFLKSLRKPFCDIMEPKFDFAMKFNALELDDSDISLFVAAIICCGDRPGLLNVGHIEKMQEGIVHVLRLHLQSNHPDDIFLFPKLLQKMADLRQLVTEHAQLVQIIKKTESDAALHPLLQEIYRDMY

[5] = molecular target: T3, Peroxisome proliferator-activated receptor gamma (Homo sapiens, UniProt P37231); assay: Agonist activity at recombinant human GAL4-DBD fused PPARgamma LBD expressed in COS7 cells after 24 hrs by luciferase reporter gene assay; type: cell-based
T3 sequence (P37231 whole entry): T1 sequence (whole entry)

[6] = 1-octanol/PBS distribution co-efficient, log D of the compound at […] at pH 7.4 after 30 mins by HPLC-MS/MS analysis; type: physicochemical
[7] = molecular target: T4, Peroxisome proliferator-activated receptor delta (Homo sapiens) (UniProt Q03181); assay: Agonist activity at PPARdelta (unknown origin) at 10 uM
T4 sequence (whole entry): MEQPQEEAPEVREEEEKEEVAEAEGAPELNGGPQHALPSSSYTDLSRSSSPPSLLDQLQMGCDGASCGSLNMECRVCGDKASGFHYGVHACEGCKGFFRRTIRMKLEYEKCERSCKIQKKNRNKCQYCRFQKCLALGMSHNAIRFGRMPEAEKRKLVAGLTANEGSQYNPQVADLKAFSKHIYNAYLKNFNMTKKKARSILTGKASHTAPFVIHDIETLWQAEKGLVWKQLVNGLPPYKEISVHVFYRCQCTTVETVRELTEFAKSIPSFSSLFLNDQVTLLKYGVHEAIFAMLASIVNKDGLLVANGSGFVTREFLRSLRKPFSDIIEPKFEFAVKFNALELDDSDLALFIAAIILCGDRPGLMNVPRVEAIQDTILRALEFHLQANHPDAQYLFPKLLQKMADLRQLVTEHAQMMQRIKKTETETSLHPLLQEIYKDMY

[8] = molecular target: T5, Peroxisome proliferator-activated receptor alpha (Homo sapiens, UniProt Q07869); assay: Agonist activity at recombinant human GAL4-DBD fused PPARalpha LBD expressed in COS7 cells after 24 hrs by luciferase reporter gene assay; type: cell-based
T5 sequence (Q07869 whole entry): T2 sequence (whole entry)

Mus musculus [9] = assay: Glucose-lowering effect in hyperglycemic KK/Ta mouse assessed as reduction in plasma glucose level at 30 mg/kg/day, po administered through diet for 3 days relative to control; type: functional; parameters: scale not given: the % may be the effect or the level left
Mus musculus [10] = assay: Toxicity in hyperglycemic KK/Ta mouse assessed as body weight gain at 30 mg/kg/day, po administered through diet for 3 days relative to control; type: organism-based; conditions: in vivo, 72 h
[11] = Plasma concentration in hyperglycemic KK/Ta mouse at 30 mg/kg/day, po administered through diet for 3 days measured on day 3 post last dose; type: ADME, organism-based
[12] = Clearance in cynomolgus monkey at 1 mg/kg, iv by LC-MS/MS analysis; type: ADME, organism-based, Macaca fascicularis; conditions: in vivo
[13] = Half life in cynomolgus monkey at 3 mg/kg, po by LC-MS/MS analysis; type: ADME, organism-based, Macaca fascicularis; conditions: in vivo
[14] = Metabolic stability in rat liver microsomes after 0.5 hrs; type: ADME, microsome; conditions: read-out: Stability
[15] = Tmax in cynomolgus monkey at 3 mg/kg, po by LC-MS/MS analysis; type: ADME, organism-based, Macaca fascicularis; conditions: in vivo
[16] = Tmax in Zucker diabetic fatty rat at 3 mg/kg, po dosed once daily for 14 days and followed by additional administeration on day 15; type: ADME, organism-based; conditions: in vivo
[17] = Metabolic stability in cynomolgus monkey liver microsomes after 0.5 hrs; type: ADME, Macaca fascicularis, microsome; conditions: read-out: Stability
[18] = Cmax in Zucker diabetic fatty rat at 3 mg/kg, po dosed once daily for 14 days and followed by additional administeration on day 15; type: ADME, organism-based; parameters: dose 3 mg/kg, route oral; conditions: in vivo
[19] = Cmax in cynomolgus monkey at 3 mg/kg, po by LC-MS/MS analysis; type: ADME, organism-based, Macaca fascicularis; parameters: dose 3 mg/kg, route oral; conditions: in vivo
[20] = AUC (0 to 24 hrs) in Zucker diabetic fatty rat at 3 mg/kg, po dosed once daily for 14 days and followed by additional administeration on day 15; type: ADME, organism-based; parameters: dose 3 mg/kg, time < 24 hr, route oral; conditions: in vivo
Rattus norvegicus [21] = assay: Toxicity in Zucker diabetic fatty rat assessed as body weight gain at 3 mg/kg, po administered once daily for 14 days relative to control; type: organism-based; conditions: in vivo, 336 h
[22] = Volume of distribution at steady state in cynomolgus monkey at 1 mg/kg, iv by LC-MS/MS analysis; type: ADME, organism-based, Macaca fascicularis; conditions: in vivo, read-out: Vdss
[23] = AUClast in cynomolgus monkey at 3 mg/kg, po by LC-MS/MS analysis; type: ADME, organism-based, Macaca fascicularis; parameters: dose 3 mg/kg, route oral, time 0 - last; conditions: in vivo
[24] = Oral bioavailability in cynomolgus monkey at 3 mg/kg by LC-MS/MS analysis; type: ADME, organism-based, Macaca fascicularis; conditions: in vivo
Rattus norvegicus [25] = assay: Glucose-lowering effect in Zucker diabetic fatty rat assessed as reduction in plasma glucose level at 3 mg/kg, po administered once daily for 14 days measured on day 14 post last dose relative to control; type: functional; parameters: scale not given: the % may be the effect or the level left

Row | Emax [1] | remaining at 0.5 h [2] | solubility thermodynamic at 4 h [3] | Emax [4] | EC50 [5] | logD at 0.5 h [6] | Activity [7] | EC50 [8] | concentration at 72 h [11] | SMILES | Activity (Mus musculus [9]) | Activity (Mus musculus [10]) | other results
1 | 60% | 74% | 12 µg/mL | 4% | 0.474 µM | 1.3 | inactive | > 10 µM | – | COc1ccccc1Oc1ccc2nc(COc3cccc(C(=O)O)c3)n(C)c2c1.Cl | – | – | –
2 | 80% | 62% | 2.2 µg/mL (≈ 5.66 µM) | 16% | 0.056 µM | 2.4 | inactive | > 10 µM | 0.1 µg/mL | Cc1ccccc1Oc1ccc2nc(COc3cccc(C(=O)O)c3)n(C)c2c1 | 26.9% | 3.7% | –
3 | 75% | 98% | 2.2 µg/mL (≈ 5.61 µM) | 22% | 0.201 µM | 2 | inactive | > 10 µM | 1.74 µg/mL | Cn1c(COc2cccc(C(=O)O)c2)nc2ccc(Oc3cccc(F)c3)cc21 | 52.1% | 3.2% | –
4 | 69% | 98% | 0.9 µg/mL (≈ 1.96 µM) | 17% | 0.113 µM | 3.3 | inactive | > 10 µM | 0.37 µg/mL | Cn1c(COc2cccc(C(=O)O)c2)nc2ccc(Oc3cccc(OC(F)(F)F)c3)cc21 | 41.9% | 5.3% | –
5 | 62% | – | 2 µg/mL (≈ 4.89 µM) | 8% | 0.126 µM | 2.6 | inactive | > 10 µM | – | Cn1c(COc2cccc(C(=O)O)c2)nc2ccc(Oc3ccc(Cl)cc3)cc21 | 34.4% | 4.1% | –
6 | 80% | 91% | 4.4 µg/mL (≈ 10.8 µM) | 40% | 0.0044 µM | 2.7 | – | > 10 µM | 0.47 µg/mL | Cc1ccc(Oc2ccc3nc(COc4cccc(C(=O)O)c4)n(C)c3c2)cc1F | 56.8% | 4.2% | clearance [12]: 0.108 L/h/kg; half-life [13]: 13.8 h; remaining at 0.5 h [14]: 100%; Tmax [15]: 1.5 h; Tmax [16]: 2 h; remaining at 0.5 h [17]: 91%; Cmax [18]: 0.79 µg/mL; Cmax [19]: 2.06 µg/mL; AUC at 24 h [20]: 5.53 µg·h/mL; Activity (Rattus norvegicus [21]): 13.8%; Vd [22]: 0.32 L/kg; AUC(0-t) [23]: 8.44 µg·h/mL; bioavailability [24]: 28%; Activity (Rattus norvegicus [25]): 59.3%
7 | 76% | 69% | 3.8 µg/mL (≈ 9.78 µM) | 19% | 0.079 µM | 2.3 | inactive | > 10 µM | 0.09 µg/mL | Cc1cccc(Oc2ccc3nc(COc4cccc(C(=O)O)c4)n(C)c3c2)c1 | 56.9% | 3.2% | –
8 | 71% | 100% | 9.3 µg/mL (≈ 23 µM) | 7% | 0.307 µM | 1.8 | inactive | > 10 µM | – | COc1ccc(Oc2ccc3nc(COc4cccc(C(=O)O)c4)n(C)c3c2)cc1 | – | – | –
9 | 95% | 62% | 16 µg/mL (≈ 38.4 µM) | 12% | 0.021 µM | 2 | – | > 10 µM | 0.36 µg/mL | Cn1c(COc2cccc(C(=O)O)c2)nc2ccc(Oc3ccc4c(c3)OCC4)cc21 | 41.6% | 4.8% | remaining at 0.5 h [14]: 79%; Tmax [16]: 3.2 h; Cmax [18]: 0.08 µg/mL; AUC at 24 h [20]: 0.85 µg·h/mL; Activity (Rattus norvegicus [21]): 15.6%; Activity (Rattus norvegicus [25]): 69.7%
10 | 103% | 90% | – | 69% | 0.086 µM | 2.7 | inactive | – | 0.19 µg/mL | Cl.Cn1c(COc2cccc(C(=O)O)c2)nc2ccc(Oc3cccc(Cl)c3)cc21 | 59.6% | 2.8% | –
11 | 75% | – | 19 µg/mL (≈ 48.4 µM) | 29% | 0.122 µM | 2 | inactive | > 10 µM | 0.32 µg/mL | Cn1c(COc2cccc(C(=O)O)c2)nc2ccc(Oc3ccc(F)cc3)cc21 | 56.7% | 3.4% | –
12 | 66% | 59% | 1.7 µg/mL (≈ 4.18 µM) | 19% | 0.022 µM | 2.5 | – | > 10 µM | 0.19 µg/mL | Cc1cc(F)ccc1Oc1ccc2nc(COc3cccc(C(=O)O)c3)n(C)c2c1 | 54.7% | 2.8% | remaining at 0.5 h [14]: 47%; Tmax [16]: 4 h; Cmax [18]: 0.042 µg/mL; AUC at 24 h [20]: 0.42 µg·h/mL; Activity (Rattus norvegicus [21]): 11.9%; Activity (Rattus norvegicus [25]): 22%
13 | 81% | 85% | – | 56% | 0.023 µM | 2.8 | inactive | – | 0.09 µg/mL | Cl.Cn1c(COc2cccc(C(=O)O)c2)nc2ccc(Oc3cccc(C(F)(F)F)c3)cc21 | 45.1% | 3.8% | –
14 | 92% | 68% | 5.4 µg/mL (≈ 13.4 µM) | 30% | 0.235 µM | 1.8 | inactive | > 10 µM | – | COc1cccc(Oc2ccc3nc(COc4cccc(C(=O)O)c4)n(C)c3c2)c1 | – | – | –
